Measurements taken from PMC4147597 (Toxins, 2014).
Like-named read-outs stand apart in the source and are kept apart here.

How the values were obtained:
L-type Ca^2+ channels = details: read-out: IC50 for block of L-type Ca^2+ channels; cited from earlier work
From the text: (§1) There are a variety of valuable pharmacological tools available to study the contribution of specific IK channels to the mechanism of endothelium-dependent dilation in isolated vessels and to blood pressure control in vivo. IK channel modulators mainly comprise small organic compounds and venom-derived peptides. These different classes of chemicals modulate the channel by binding to either the external or the internal face of the ion-conducting pore. Among the different ion modulators, venom-derived peptides usually block their targets with high affinity, that is, with IC50 in the […] ...

hIK1 [1] = target: T1, hIK1 (Homo sapiens, UniProt O15554); details: hIK1 cell line; read-out: EC50 for hIK1 activation; cited from earlier work
T1 construct: expressed in transfected cells; host or cells: HEK293T cells, transient transfection with Lipofectamine 2000
From the text: The intermediate-conductance Ca^2+-activated K^+ (IK) channels belong to the gene family of calcium/calmodulin-regulated and voltage-independent K^+ channels (SK1/SK2/SK3 and IK) and contribute to cellular functions by producing membrane hyperpolarization, thus regulating intracellular Ca^2+ signaling. IK channels are gated solely by internal Ca^2+, with a unit conductance of 20–85 pS. Expression of hIK1 in HEK293T cells gives rise to inwardly rectifying K^+ currents, which are activated by submicromolar concentrations of intracellular Ca^2+ (EC50 = 0.3 μM). […] After the application of 80 μM HNTX-I, NS309 still activated the current about 1.5-fold (Figure 3A). […] After the initial equilibration period, HNTX-I was added at 80 μM to yield a higher current within ~3 min. Then, 100 nM NS309 was applied and reached the peak in under 1 min. Thus, the p ...

hIK1 [2] = target: T1, hIK1; format: cell-based; details: for enhancement of the amplitude of IK currents: 0.3 μM free Ca^2+ in pipette, voltage ramps
[3] = system: cardiac hERG K^+ channels; details: micromolar concentrations; cited from earlier work
From the text: as §1

[4] = system: American cockroach (Periplaneta americana); experiment: acute in vivo toxicity in American cockroach; details: intra-abdominal injection, 50–250 μg/g; adult male; 7 days
Experimental: (§2) Five mice (17–19 g) were injected intravenously with multiple […] doses of 0.5–2.5 mg/kg HNTX-I (in mammalian Ringer solution with 1% ethanol and 2.5% BSA). Five control mice were injected with an equal volume of the vehicle. The toxicity of HNTX-I was qualitatively assayed by intra-abdominal injection into adult male cockroaches (Periplaneta) with body weights of 0.8–1.2 g at doses of 50–250 μg/g using 10-μL solutions (in 0.85% (w/v) normal saline).

hERG K^+ channel = details: 100 μM
[5] = system: voltage-gated L-type Ca^2+ channels; experiment: L-type Ca^2+ channels from DRG, whole-cell patch-clamp; format: cell-based; details: 100 μM; rat DRG; n = 5
[6] = system: voltage-gated Na^+ channels; experiment: voltage-gated Na^+ channels, summary of screening; format: cell-based, rat; details: 100 μM
[7] = system: mouse phrenic nerve-diaphragm preparations; experiment: phrenic nerve-diaphragm twitch-tension (phrenic nerve conduction block)
Experimental: The twitch-tension experiments were performed using mouse phrenic nerve-diaphragm preparations. Adult Kunming albino mice (18–22 g of either gender) were killed by cervical dislocation. After dissection, the preparations were placed in a Plexiglas chamber immersed in Tyrode’s solution or toxin solutions continuously bubbled with 95% O2, 5% CO2 and maintained at 30–32 °C. The electrical stimulation was applied indirectly to the phrenic nerve with a suction electrode at 0.2 Hz with pulses of 0.2 ms in duration and supramaximally. For direct stimulation, the muscle was stimulated at a frequency of 0.2 Hz (supramaximal, 2 ms, square wave). A mechanical-electric transducer made of a semiconductor strain gauge was used to transform the twitch responses into electric signals. […] The time from the application of HNTX-I to complete blocking of neuromuscular transmission was defined as blocking time, and the concentrations of HNTX-I we used were 1 μM, 10 μM and 100 μM.

rNav1.2/β1 = details: Xenopus laevis oocytes; ref previous works; cited from earlier work
[8] = system: voltage-gated T-type Ca^2+ channels; experiment: T-type Ca^2+ channels from DRG, whole-cell patch-clamp; format: cell-based; details: 100 μM; rat DRG; n = 5
para/tipE = details: Xenopus laevis oocytes; ref previous works; cited from earlier work
VGSCs = details: ref previous work; cited from earlier work
From the text: In general, hydrophobic and polar residue hot spots are important binding determinants in toxins and ion channel interactions. […] HNTX-I should therefore present a similar type of interacting surface as other toxins whose binding sites are at the outer membrane. In our previous work, we have shown that such a basic profile ...

[9] = system: tetrodotoxin-resistant (TTX-R) Na^+ channels; details: cited from earlier work
[10] = system: VGSCs in cardiac or skeletal muscles; details: mammals; ref previous works; cited from earlier work
neuronal TTX-S VGSCs = details: adult rat dorsal root ganglion neurons; ref previous works (ref 9); cited from earlier work
BK channels = experiment: BK channel current in HEK293T cells, whole-cell patch-clamp; format: cell-based; details: 100 μM, n = 5
[11] = system: voltage-gated Ca^2+ channels; experiment: voltage-gated Ca^2+ channels, summary of screening; format: cell-based, rat; details: 100 μM
mice = experiment: acute in vivo toxicity in mice; design: species or system mouse
Experimental: as §2

[12] = intravenous, 0.5–2.5 mg/kg, seven days

T1 sequence (O15554 whole entry): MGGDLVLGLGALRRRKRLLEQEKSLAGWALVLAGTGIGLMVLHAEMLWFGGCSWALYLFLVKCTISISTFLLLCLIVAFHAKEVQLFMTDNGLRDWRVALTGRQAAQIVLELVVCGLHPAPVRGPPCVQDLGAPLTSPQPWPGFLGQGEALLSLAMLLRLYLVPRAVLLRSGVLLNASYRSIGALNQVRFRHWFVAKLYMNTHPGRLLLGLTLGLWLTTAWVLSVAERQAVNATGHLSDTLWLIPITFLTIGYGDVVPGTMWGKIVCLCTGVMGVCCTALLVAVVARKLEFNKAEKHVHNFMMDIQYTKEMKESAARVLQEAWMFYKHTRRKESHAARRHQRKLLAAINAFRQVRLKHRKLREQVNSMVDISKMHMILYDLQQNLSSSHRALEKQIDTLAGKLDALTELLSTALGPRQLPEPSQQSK

Compound: CCn1c(=O)[nH]c2cc(Cl)c(Cl)cc21 [DC-EBIO, 5,6-dichloro-1-ethyl-1,3-dihydro-2H-benzimidazole-2-one]
- IC50 (L-type Ca^2+ channels): 70 µM

Compound: O=C1Nc2c(ccc(Cl)c2Cl)C1=NO [NS309, 3-oxime-6,7-dichloro-1H-indole-2,3-dione, reference compound]
- EC50 (hIK1 [1]): 0.03 µM
- activation of hIK1 channels in the presence of HNTX-I (hIK1 [2]; 100 nM NS309, 80 μM HNTX-I): activated hIK1 channels
- activation of current after HNTX-I (fold) (hIK1 [2]; 100 nM NS309 after application of 80 μM HNTX-I): about 1.5 fold
- influence of HNTX-I on potency and kinetics of NS309 (hIK1 [2]; 100 nM NS309 in the presence of 80 μM HNTX-I): not notably influenced by HNTX-I
- time to peak of NS309 activation (hIK1 [2]; 100 nM NS309 in the presence of 80 μM HNTX-I, n = 5): under 1 min
- IC50 (L-type Ca^2+ channels): 10 µM
- inhibition of cardiac hERG K^+ channels [3]: inhibits

Compound: Hainantoxin-I [HNTX-I]
- symptoms of poisoning [4]: did not produce symptoms of poisoning
- sensitivity of hERG K^+ channels (hERG K^+ channel): insensitive
- effect on hERG K^+ channel (hERG K^+ channel; HEK293T cells, n = 5): no effect
- effect on L-type Ca^2+ channels [5]: no effect
- enhancement of the amplitude of IK currents (hIK1 [2]; 40 μM HNTX-I, n = 5): 33.2% ± 0.5
- reversibility / dose-dependency on hIK1 (hIK1 [2]; 80 μM HNTX-I): clearly demonstrated the dose-dependency, as well as reversible nature
- time to yield higher current (hIK1 [2]; 80 μM HNTX-I, after initial equilibration, before NS309): ~ 3 min
- enhancement of the amplitude of IK currents (hIK1 [2]; 80 μM HNTX-I, n = 5): 97% ± 0.7
- Imax (hIK1 [2]; 80 μM HNTX-I, current shortly before application = 100%): 197%
- Imax at higher concentration (hIK1 [2]; 200 μM HNTX-I, compared with 80 μM): did not change
- time to reach higher current level (hIK1 [2]; after 40 μM HNTX-I applied, n = 5): ~ 3 min
- return of current to baseline upon washing (hIK1 [2]; washing after 40 μM HNTX-I, n = 5): the current returned to baseline with approximately the same time characteristics
- sensitivity of voltage-gated Na^+ channels [6]: insensitive
- inhibition of nerve-evoked twitch tension ([7]; 1 μM, Tyrode's solution, 30–32 °C): did not inhibit the nerve-evoked twitch tension
- influence on neuromuscular transmission ([7]; 100 μM or lower): did not influence the neuromuscular transmission
- blockade of twitch responses ([7]; 10 and 100 μM, within 4 h, n = 5): no apparent blockades in the twitch responses
- block of rNav1.2/β1 (rNav1.2/β1): selectively blocks
- effect on T-type Ca^2+ channels [8]: no effect
- block of para/tipE (para/tipE): selectively blocks
- inhibition of VGSCs in vertebrates and insects (VGSCs): inhibits VGSCs
- effect on TTX-R Na^+ channels [9]: no effect
- effect on VGSCs in cardiac or skeletal muscles [10]: nor does it target VGSCs
- effect on neuronal TTX-S VGSCs (neuronal TTX-S VGSCs): no effect
- effect on BK channels (BK channels): no effect
- sensitivity of voltage-gated Ca^2+ channels [11]: insensitive
- clinical appearance (mice; intravenous, 0.5, 1.0, 1.5, 2.0 and 2.5 mg/kg, five mice per dose, seven-day study): appeared clinically normal
- aggressive/defensive responses (mice; [12]): no aggressive/defensive responses were elicited
- death (mice; [12]): did not cause death at any concentration
- depilation of pelage (mice; [12]): not depilated
